From US8741914B2, “Antiviral compounds and uses thereof” (priority 2009, dated 2014) come the findings set out here.

As usually defined, the IC50 is the concentration that gives 50% inhibition. Low values mean inhibition by little substance, high ones a need for much substance. The EC50 is the concentration giving half of the maximal effect. High values mean a need for much substance, low ones an effect from little substance.

Bounds are passed on as bounds.

In experiment [1] the target is T1, HCV polymerase 1A (Δ21 NS5B, H77) (Hepatitis C virus genotype 1a, UniProt P27958).
T1 construct: 20 to 50 nM Δ21 NS5B
Put plainly: HCV Polymerase Inhibition Assay (1a). The experiment is classed as biochemical. The protocol: (§1) The reaction was initiated by the addition of 20 μM CTP, 20 μM ATP, 1 μM ^3H-UTP (10 mCi/μmol), 5 nM template RNA and 0.1 U/μL RNase inhibitor (RNasin, Promega), and allowed to proceed for 2 to 4 hours at room temperature. Reaction volume was 50 μL. The reaction was terminated by the addition of 1 volume of 4 mM spermine in 10 mM Tris-Cl pH 8.0, 1 mM EDTA. After incubation for at least 15 minutes at room temperature, the precipitated RNA was captured by filtering through a GF/B filter (Millipore) in a 96 well format. The filter plate was washed three times with 200 μL each of 2 mM spermine, 10 mM Tris-Cl pH 8.0, 1 mM EDTA, and 2 times with ethanol. After air-drying, 30 μL of Microscint 20 scintillation cocktail (Packard) was added to each well, and the retained cpm were determined by scintillation counting. […] Retained cpm were plotted vs. inhibitor concentration and fit to equation 1 using non-linear regression (ref. 1) to obtain the IC50 values: Retained cpm=A[sqrt{(IC50+It−Et)^2+4*IC50*Et}−(IC50+It−Et)] (equation 1) where A=Vmax[S]/2(Km+[S]); It=total inhibitor concentration and Et=total active concentration of enzyme.
(§2) Ref. Morrison, J. F. and S. R. Stone. 1985. Approaches to the study and analysis of the inhibition of enzymes by slow- and tight-binding inhibitors. Comments Mol. Cell. Biophys. 2: 347-368.
(§3) The sequence of the template RNA used was: 5′-[…] […] […] […] […] […] […] […] […] […] […] […] […] […] […] […] […]-3′ (SEQ ID NO: 1).

Experiment [2] concerns the target T2, HCV polymerase 1B (Δ21 NS5B, BK) (Hepatitis C virus genotype 1b, UniProt P26663).
T2 construct: 20 to 50 nM Δ21 NS5B
Put plainly: HCV Polymerase Inhibition Assay (1b). The experiment is classed as biochemical. The procedure:
as §1, §2, §3

Experiment [3] concerns genotype 1a-H77 subgenomic replicon cell line. Put plainly: HCV Polymerase Replicon Assay (genotype 1a-H77). In kind it is cell-based. The note with it: Hepatitis C virus, 72 h; 1a-H77 replicon, luciferase reporter, 5% FBS, three days. On the technique in general: A replicon is a self-replicating genome or part of one, used to study replication in cells.
Experiment [4] deals with genotype 1b-Con1 subgenomic replicon cell line. Put plainly: HCV Polymerase Replicon Assay (genotype 1b-Con1). The experiment is classed as cell-based. To be noted: Hepatitis C virus, 72 h; 1b-Con1 replicon, luciferase reporter, 5% FBS, three days.

T1 sequence (P27958 2421-2990, stated change not applied): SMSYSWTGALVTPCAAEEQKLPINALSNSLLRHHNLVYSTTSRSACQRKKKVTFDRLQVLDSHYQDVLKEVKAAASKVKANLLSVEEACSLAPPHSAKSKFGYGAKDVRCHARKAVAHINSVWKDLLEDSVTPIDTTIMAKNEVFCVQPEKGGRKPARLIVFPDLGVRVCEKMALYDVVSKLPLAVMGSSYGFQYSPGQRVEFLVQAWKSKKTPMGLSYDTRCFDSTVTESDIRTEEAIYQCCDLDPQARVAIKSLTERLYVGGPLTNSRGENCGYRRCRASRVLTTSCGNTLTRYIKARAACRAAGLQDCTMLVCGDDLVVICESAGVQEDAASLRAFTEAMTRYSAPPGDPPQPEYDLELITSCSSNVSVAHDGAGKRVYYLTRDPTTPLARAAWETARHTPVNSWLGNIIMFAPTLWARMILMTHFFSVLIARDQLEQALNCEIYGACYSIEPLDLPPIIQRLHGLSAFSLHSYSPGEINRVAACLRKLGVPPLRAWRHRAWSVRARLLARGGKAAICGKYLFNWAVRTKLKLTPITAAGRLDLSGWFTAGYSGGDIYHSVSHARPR
T2 sequence (P26663 2420-2989, stated change not applied): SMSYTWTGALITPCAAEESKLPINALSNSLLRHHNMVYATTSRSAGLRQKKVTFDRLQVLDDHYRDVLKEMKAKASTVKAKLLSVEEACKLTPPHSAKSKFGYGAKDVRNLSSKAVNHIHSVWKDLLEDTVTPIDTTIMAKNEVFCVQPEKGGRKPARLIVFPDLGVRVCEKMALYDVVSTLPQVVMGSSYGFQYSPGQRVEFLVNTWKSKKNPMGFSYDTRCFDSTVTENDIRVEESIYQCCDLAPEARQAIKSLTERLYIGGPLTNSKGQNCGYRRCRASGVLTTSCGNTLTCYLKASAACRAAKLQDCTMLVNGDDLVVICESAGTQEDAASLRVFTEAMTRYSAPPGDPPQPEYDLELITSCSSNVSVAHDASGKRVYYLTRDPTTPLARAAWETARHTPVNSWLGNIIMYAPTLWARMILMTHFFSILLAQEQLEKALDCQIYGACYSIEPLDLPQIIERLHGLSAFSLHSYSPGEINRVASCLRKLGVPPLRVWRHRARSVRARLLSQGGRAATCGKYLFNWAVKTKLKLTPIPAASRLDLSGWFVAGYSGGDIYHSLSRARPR

Regarding `CC(C)(C)c1cc(-n2ccc(=O)[nH]c2=O)cc2c(Nc3cc(CNS(C)(=O)=O)cs3)ncnc12` [Compound 7, N-((5-(8-tert-butyl-6-(2,4-dioxo-3,4-dihydropyrimidin-1(2H)-yl)quinazolin-4-ylamino)thiophen-3-yl)methyl)methanesulfonamide], the results for the IC50 in experiment [1] and in experiment [2] were 10 to 100 nM and below 10 nM, respectively. The results for the 50% effective concentration (EC50) in experiment [3] and in experiment [4] were above 1000 nM and 100 to 1000 nM, respectively.

Take `COc1c(C(C)(C)C)cc(-n2ccc(=O)[nH]c2=O)c2cccnc12` [Compound 1, 1-(7-tert-butyl-8-methoxyquinolin-5-yl)pyrimidine-2,4(1H,3H)-dione]: the IC50 in experiment [1] and in experiment [2] was 10 to 100 nM each time. The figures for the 50% effective concentration (EC50) in experiment [3] and in experiment [4] were 100 to 1000 nM and at most 10 nM, respectively.

Consider `CC1(C)COc2c(-c3ccc4cc(NS(C)(=O)=O)ccc4c3)cc(-n3ccc(=O)[nH]c3=O)cc21` [Compound 3, N-(6-(5-(2,4-dioxo-3,4-dihydropyrimidin-1(2H)-yl)-3,3-dimethyl-2,3-dihydrobenzofuran-7-yl)naphthalen-2-yl)methanesulfonamide], for which the IC50 is below 10 nM in experiment [1] and 10 to 100 nM in experiment [2]. Moreover, the concentration giving a half-maximal response (EC50) in experiment [3] lay within 100 to 1000 nM; in experiment [4], 10 to 100 nM.

For `CC(C)(C)c1cc(N2CCC(=O)NC2=O)cc2c(Nc3ccc(NS(C)(=O)=O)cc3)ncnc12` [Compound 6, N-(4-(8-tert-butyl-6-(2,4-dioxotetrahydropyrimidin-1(2H)-yl)quinazolin-4-ylamino)phenyl)methanesulfonamide], the half-maximal inhibitory concentration (IC50) in experiment [1] and in experiment [2] was 10 to 100 nM each time. The concentration giving a half-maximal response (EC50) in experiment [3] and in experiment [4] was 100 to 1000 nM each time.

`CC1(C)CC(=O)Oc2c1cc(N1CCC(=O)NC1=O)c1ccccc21` [Compound 4, 1-(4,4-dimethyl-2-oxo-3,4-dihydro-2H-benzo[h]chromen-6-yl)dihydropyrimidine-2,4(1H,3H)-dione]: the IC50 in experiment [1] is above 1000 nM; in experiment [2] it was 100 to 1000 nM.

`CC(C)(C)c1cc(-n2ccc(=O)[nH]c2=O)cc2c(Nc3ccc(NS(C)(=O)=O)cc3)ncnc12` [Compound 5, N-(4-(8-tert-butyl-6-(2,4-dioxo-3,4-dihydropyrimidin-1(2H)-yl)quinazolin-4-ylamino)phenyl)methanesulfonamide]: the 50% inhibitory concentration (IC50) in experiment [1] and in experiment [2] was 10 to 100 nM each time. For the same compound, the half-maximal effective concentration (EC50) in experiment [3] was above 1000 nM; in experiment [4], 100 to 1000 nM.

With `COc1c(C(C)(C)C)cc(-n2ccc(=O)[nH]c2=O)c2ccc(-c3ccc(NS(C)(=O)=O)cc3)nc12` [Compound 2, N-(4-(7-tert-butyl-5-(2,4-dioxo-3,4-dihydropyrimidin-1(2H)-yl)-8-methoxyquinolin-2-yl)phenyl)methanesulfonamide], the IC50 in experiment [1] and in experiment [2] was above 1000 nM in each case.
